In PubChem BioAssay AID248 (DTP/NCI, 2004):
Inconclusive results and toxic doses are left out. Rule as the data show it: active = T/C of 150% or more; inactive = T/C below 125%.

Tested on: L1210 leukemia ip in BDF1 mice, survival T/C
Experiment: NCI In Vivo Anticancer Drug Screen. Data for tumor model L1210 Leukemia (intraperitoneal) in B6D2F1 (BDF1) mice
Settings: endpoint: mean survival time, higher = longer survival
Procedure, shortened: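 Value reflects the ratio of survival in compound-treated mice to survival in vehicle-treated controls, with both groups carrying the same transplanted tumor.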

[1] = dose: 100.0 mg/kg/injection, schedule: Q01DX001 (ip), vehicle: saline
[2] = dose: 200.0 mg/kg/injection, schedule: Q01DX001 (ip), vehicle: saline
[3] = dose: 400.0 mg/kg/injection, schedule: Q01DX001 (ip), vehicle: saline
[4] = dose: 100.0 mg/kg/injection, schedule: Q01DX009 (ip), vehicle: saline
[5] = dose: 100.0 mg/kg/injection, schedule: Q04DX003 (ip), vehicle: Klucel (hydroxypropylcellulose) (HPC)
[6] = dose: 200.0 mg/kg/injection, schedule: Q04DX003 (ip), vehicle: Klucel (hydroxypropylcellulose) (HPC)
[7] = dose: 400.0 mg/kg/injection, schedule: Q04DX003 (ip), vehicle: Klucel (hydroxypropylcellulose) (HPC)

Measured: T/C

OC1/C=C\CCCCC1 (stereo not given)
inactive: [1] 98 % of control | [2] 93 % of control | [3] 98 % of control

Cc1ccc(S(=O)(=O)OCCC2CCCCC2COS(=O)(=O)c2ccc(C)cc2)cc1 (stereo not given)
inactive: [4] 100 % of control | [5] 100 % of control | dose: 200.0 mg/kg/injection, schedule: Q01DX009 (ip), vehicle: saline 91 % of control | [6] 99 % of control | dose: 400.0 mg/kg/injection, schedule: Q01DX009 (ip), vehicle: saline 96 % of control | [7] 94 % of control

O=S(=O)(Cc1ccccc1)/C(=C\c1ccccc1)c1ccccc1
inactive: dose: 50.0 mg/kg/injection, schedule: Q01DX001 (ip), vehicle: saline 105 % of control | [1] 105 % of control | [2] 105 % of control | [3] 103 % of control

O=c1[nH]ncn1-c1ccccc1
inactive: [5] 96 % of control | [6] 92 % of control | [7] 91 % of control

CN(C)C(=S)[S][Sb]([S]C(=S)N(C)C)[c]1ccccc1
inactive: dose: 100.0 mg/kg/injection, schedule: Q01DX001 (ip), vehicle: steriod suspending solution 96 % of control | dose: 200.0 mg/kg/injection, schedule: Q01DX001 (ip), vehicle: steriod suspending solution 96 % of control

COc1cc(C=Nc2cccc(Cl)c2)ccc1N(CCCl)CCCl
inactive: dose: 12.5 mg/kg/injection, schedule: Q01DX Z (ip), vehicle: carboxymethylcellulose (CMC) 122 % of control | dose: 25.0 mg/kg/injection, schedule: Q01DX Z (ip), vehicle: carboxymethylcellulose (CMC) 120 % of control | dose: 35.0 mg/kg/injection, schedule: Q01DX015 (ip), vehicle: carboxymethylcellulose (CMC) 87 % of control

O=C(N/N=C\c1ccc(Cl)cc1Cl)C1CC1
inactive: dose: 15.0 mg/kg/injection, schedule: Q01DX Z (ip), vehicle: carboxymethylcellulose (CMC) 97 % of control | dose: 30.0 mg/kg/injection, schedule: Q01DX Z (ip), vehicle: carboxymethylcellulose (CMC) 92 % of control | dose: 30.0 mg/kg/injection, schedule: Q01DX Z (oral), vehicle: carboxymethylcellulose (CMC) 98 % of control | dose: 60.0 mg/kg/injection, schedule: Q01DX Z (ip), vehicle: carboxymethylcellulose (CMC) 95 % of control | dose: 60.0 mg/kg/injection, schedule: Q01DX Z (oral), vehicle: carboxymethylcellulose (CMC) 100 % of control | dose: 120.0 mg/kg/injection, schedule: Q01DX Z (oral), vehicle: carboxymethylcellulose (CMC) 121 % of control

COC(=O)C(CCSC)NC(=O)C(C)NC(=O)c1cnc2ccccc2n1 (stereo not given)
inactive: dose: 100.0 mg/kg/injection, schedule: Q01DX001 (ip), vehicle: carboxymethylcellulose (CMC) 91 % of control | dose: 200.0 mg/kg/injection, schedule: Q01DX001 (ip), vehicle: carboxymethylcellulose (CMC) 94 % of control | dose: 400.0 mg/kg/injection, schedule: Q01DX001 (ip), vehicle: carboxymethylcellulose (CMC) 98 % of control

O=C(NCc1cnccn1)OCC(Cl)(Cl)Cl
inactive: dose: 100.0 mg/kg/injection, schedule: Q01DX009 (ip), vehicle: saline with Tween-80 97 % of control | dose: 200.0 mg/kg/injection, schedule: Q01DX009 (ip), vehicle: saline with Tween-80 106 % of control | dose: 400.0 mg/kg/injection, schedule: Q01DX009 (ip), vehicle: saline with Tween-80 103 % of control

C[C@]12CCC(=O)C=C1CC[C@@H]1[C@@H]2[C@@H](O)C[C@@]2(C)[C@H]1CC[C@]2(O)C(=O)CF
inactive: dose: 50.0 mg/kg/injection, schedule: Q01DX Z (sc), vehicle: steriod suspending solution 106 % of control | dose: 250.0 mg/kg/injection, schedule: Q01DX Z (sc), vehicle: steriod suspending solution 104 % of control | dose: 500.0 mg/kg/injection, schedule: Q01DX Z (sc), vehicle: steriod suspending solution 107 % of control

CCN(CC)C(=O)C1C=C2c3cccc4c3c(c(Br)n4C)CC2N(C)C1 (stereo not given)
inactive: dose: 12.5 mg/kg/injection, schedule: Q01DX009 (ip), vehicle: saline 102 % of control | dose: 25.0 mg/kg/injection, schedule: Q01DX009 (ip), vehicle: saline 120 % of control | dose: 25.0 mg/kg/injection, schedule: Q04DX003 (ip), vehicle: saline 103 % of control | dose: 50.0 mg/kg/injection, schedule: Q01DX009 (ip), vehicle: saline 112 % of control | dose: 50.0 mg/kg/injection, schedule: Q04DX003 (ip), vehicle: saline 98 % of control | [4] 107 % of control | dose: 100.0 mg/kg/injection, schedule: Q04DX003 (ip), vehicle: saline 104 % of control | dose: 200.0 mg/kg/injection, schedule: Q04DX003 (ip), vehicle: saline 106 % of control

CC(=O)OC1CCCC23CC(CC12)C(C)(C)C3Br (stereo not given)
inactive: dose: 100.0 mg/kg/injection, schedule: Q01DX009 (ip), vehicle: Klucel (hydroxypropylcellulose) (HPC) 95 % of control | [5] 97 % of control | dose: 200.0 mg/kg/injection, schedule: Q01DX009 (ip), vehicle: Klucel (hydroxypropylcellulose) (HPC) 100 % of control | [6] 93 % of control | dose: 400.0 mg/kg/injection, schedule: Q01DX009 (ip), vehicle: Klucel (hydroxypropylcellulose) (HPC) 97 % of control | [7] 95 % of control
